# Key:
# Format in all cases: cell-based
# LX-2 cells [1] = assay: Cytotoxicity test (Cell Counting Kit-8); settings: ASTX up to 25 μM, 24 h (FIG. 1A)
# Procedure: LX-2 cells were incubated with 0-200 μM ASTX for 24 h and its cytotoxicity was measured using a Cell Counting Kit-8 (Dojindo Inc., Rockville, Md.) as previously described (see Yang et al. Food Chem. Toxicol. 2011, vol. 49, pp. 1560-1564). Positive control (0.5 mM SDS) was run in parallel.
# LX-2 cells [2] = assay: qRT-PCR of LX-2 cells transfected with scramble control or Smad3 siRNA
# Procedure: Total RNA extraction, cDNA synthesis, and qRT-PCR were conducted using a Bio-Rad CFX96 Real-Time system (Bio-Rad, Hercules, Calif.) as previously described (see Park et al. Nutr. Res. 2008, vol. 28, pp. 83-91; Rasmussen et al. J. Nutr. 2008, vol. 138, pp. 476-481). Gene sequences were obtained from the GenBank database and primers were designed using Beacon Designer (Premier Biosoft, Palo Alto, Calif.). Primer sequences are available (see supplemental table of Yang et al. Biochimica et Biophysica Acta 2015, vol. 1850, pp. 178-185).
# LX-2 cells were transfected with either Silencer® Negative Control scrambled siRNA (Ambion, Invitrogen, Grand Island, N.Y.) or siGENOME SMARTpool SMAD3 siRNA (siGenome, Thermo Scientific, Logan, Utah) as described previously (see Angulo N. Engl. J. Med. 2002, vol. 346, pp. 1221-1231). Twenty four hours after the transfection, cells were pretreated with 25 μM ASTX for 12 h, after which they were stimulated by 2 ng/mL TGFβ1 for additional 12 h for subsequent qRT-PCR analysis.
# mouse primary HSCs = assay: Activation of mouse primary qHSCs (Example 2): morphology, qRT-PCR, Western blot
# Procedure: Mouse primary HSCs were isolated from C57BL/6J, nuclear erythroid 2-related factor 2 (NRF2) knockout (Nrf2−/−), and wild-type mice using a pronase/collagenase digestion method as described herein Example 1. The cells were then cultured on untreated petri dishes (BD Falcon, Franklin Lakes, N.J.), and maintained in a low-glucose DMEM medium supplemented with 10% FBS, 4 mM L-glutamine, and P/S (100 U/100 μg per mL). Human primary HSCs (Zen-Bio, Research Triangle Park, N.C.) were maintained in a low-glucose DMEM medium containing 2% FBS, 4 mM L-glutamine, 1× nonessential amino acids, 1× vitamins, and P/S (100 U/100 μg per mL). The cells were seeded on a collagen-coated plate for experiments (Sarstedt, Newton, N.C.). LX-2 cells, kindly provided by Dr. Scott Friedman at the Icahn School of Medicine at Mount Sinai (New York, N.Y.), were maintained in a low-glucose DMEM supplemented with 2% FBS, 4 mM L-glutamine, and P/S (100 U/100 μg per mL). All cells were cultured in a 37° C. humidified cell culture chamber with 5% CO2. Cell culture supplies were purchased from HyClone unless stated otherwise (Thermo Scientific, Logan, Utah).
# ASTX, provided by Fuji Chemical Industry Co., Ltd. (Toyama, Japan), was prepared in DMSO as described herein in Example 1. After plated on an uncoated dish, mouse qHSCs were incubated with 25 μM ASTX during activation. aHSCs, which were prepared by culturing qHSCs on an uncoated dish for 6 d, were incubated with 25 μM ASTX for 2 or 4 more days. Also, cells were incubated with 3 μM tert-butyl hydrogen peroxide (tBHP, Thermo Scientific) for 12 h with or without 25 μM ASTX. Medium containing ASTX was replenished daily and DMSO vehicle control was always run in parallel. Human primary HSC were treated with 25 μM ASTX for 24 h, after which they were activated by 3 ng/mL of TGFβ1 (Peprotech, Rocky Hill, N.J.) for 24 h.
# Total RNA extraction, cDNA synthesis, and qRT-PCR were conducted using a Bio-Rad CFX96 Real-Time system (Bio-Rad, Hercules, Calif.) as previously described (Id.). Primer sequences will be available upon request.
# Whole cell lysates and human tissue protein extracts were prepared and Western blot analysis were performed as described (Id.) using antibodies against α-SMA (Sigma, St. Louis, Mo.), HDAC3 (Santa Cruz Biotechnology, Santa Cruz, Calif.), HDAC4 (Santa Cruz Biotechnology), HDAC9 (Abcam, Cambridge, Mass.; Novus Biologicals, Littleton, Colo.), Col1A1 (Sigma). β-tubulin (Santa Cruz) or glyceraldehyde 3-phosphate dehydrogenase (GAPDH) (Santa Cruz) was used as a loading control.
# [3] = ASTX added at day 4 for 2 d during HSC activation (FIG. 8B)
smiles,measurement,setting,value
"CC1=C(/C=C/C(C)=C/C=C/C(C)=C/C=C/C=C(C)/C=C/C=C(C)/C=C/C2=C(C)C(=O)C(O)CC2(C)C)C(C)(C)CC(O)C1=O (stereo not shown) [ASTX, astaxanthin]",cell viability,LX-2 cells [1],more than 90%
same,induction of fibrogenic genes by TGFβ1,"LX-2 cells [2]; LX-2 cells transfected with scrambled control, 25 μM ASTX 12 h (FIG. 4)",attenuated
same,expression of α-SMA,LX-2 cells [2]; Smad3-deficient (siRNA) LX-2 cells,minimal inhibitory effect
same,increase in TGFβ1 mRNA by TGFβ1 itself,LX-2 cells [2]; regardless of Smad3,inhibited
same,NOX2 mRNA,mouse primary HSCs; [3],decreased
same,NOX4 mRNA,mouse primary HSCs; [3],significantly increased
same,protein levels of α-SMA,mouse primary HSCs; ASTX for 2 days during activation (FIG. 7C),noticeably decreased
same,cytoplasmic lipid droplets,"mouse primary HSCs; day 6, cells treated with ASTX for 2-6 days (FIG. 7A)",more lipid droplets than controls
same,cell morphology vs control,"mouse primary HSCs; days 2 and 4 of activation, 25 μM ASTX (FIG. 7A)",no noticeable differences
same,α-SMA and Col1A1 mRNA,"mouse primary HSCs; during activation of qHSCs, 25 μM ASTX (FIG. 7B)",significantly decreased

# Reference: US20160287534A1, “METHODS FOR REVERSING FIBROSIS” (The University of Connecticut, priority 2015, published 2016)
